Experimental data reported in ChEMBL document CHEMBL1201862, “PubChem BioAssay data set” (2004).
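How tested: cells in 96-well plates exposed to compound for 48 hours at five concentrations. Here, GI50 denotes the concentration required for 50% inhibition of growth.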 The source made the active and inactive calls. Rule as the data show it: active = GI50 up to about 1.1 µM and inactive = higher.

Columns and labels:
Test in all cases: NCI tumour cell line growth inhibition, 48 h
OVCAR-5 = tested on: OVCAR-5
SK-MEL-5 = tested on: SK-MEL-5
U-251 = tested on: U-251
SNB-75 = tested on: SNB-75
HCT-116 = tested on: HCT-116
IGROV-1 = tested on: IGROV-1
M14 = tested on: M14
HOP-62 = tested on: HOP-62
SW-620 = tested on: SW-620
MDA-N = tested on: MDA-N
UACC-257 = tested on: UACC-257
DU-145 = tested on: DU-145
A498 = tested on: A498
SNB-19 = tested on: SNB-19
A549 = tested on: A549
ACHN = tested on: ACHN
OVCAR-3 = tested on: OVCAR-3
NCI-H460 = tested on: NCI-H460
SN12C = tested on: SN12C
HOP-92 = tested on: HOP-92
LOX IMVI = tested on: LOX IMVI
HL-60 = tested on: HL-60
CAKI-1 = tested on: CAKI-1
Hs-578T = tested on: Hs-578T
OVCAR-8 = tested on: OVCAR-8
UO-31 = tested on: UO-31
OVCAR-4 = tested on: OVCAR-4
TK-10 = tested on: TK-10
SR = tested on: SR
MDA-MB-231 = tested on: MDA-MB-231
T47D = tested on: T47D
NCI/ADR-RES = tested on: NCI/ADR-RES
MDA-MB-435 = tested on: MDA-MB-435
HT-29 = tested on: HT-29
SK-MEL-28 = tested on: SK-MEL-28
SK-OV-3 = tested on: SK-OV-3
NCI-H226 = tested on: NCI-H226
MOLT-4 = tested on: MOLT-4
SF-295 = tested on: SF-295
HCT-15 = tested on: HCT-15
K562 = tested on: K562
NCI-H23 = tested on: NCI-H23
RPMI-8226 = tested on: RPMI-8226
HCC 2998 = tested on: HCC 2998
SK-MEL-2 = tested on: SK-MEL-2
PC-3 = tested on: PC-3
NCI-H522 = tested on: NCI-H522
COLO 205 = tested on: COLO 205
MCF7 = tested on: MCF7
786-0 = tested on: 786-0
RXF 393 = tested on: RXF 393
SF-539 = tested on: SF-539
KM12 = tested on: KM12
UACC-62 = tested on: UACC-62
EKVX = tested on: EKVX
Malme-3M = tested on: Malme-3M
CCRF-CEM = tested on: CCRF-CEM
SF-268 = tested on: SF-268
BT-549 = tested on: BT-549

COP(=O)(OC)/C(=C\C1=CN(C(c2ccccc2)(c2ccccc2)c2ccccc2)CN1)NC=O
GI50 (OVCAR-5): 17.8 µM (inactive)
GI50 (SK-MEL-5): 15.9 µM (inactive)
GI50 (U-251): 16.3 µM (inactive)
GI50 (SNB-75): 20.2 µM (inactive)
GI50 (HCT-116): 15.6 µM (inactive)
GI50 (IGROV-1): 20.6 µM (inactive)
GI50 (M14): 19.9 µM (inactive)
GI50 (HOP-62): 16.5 µM (inactive)
GI50 (SW-620): 20.4 µM (inactive)
GI50 (MDA-N): 15.1 µM (inactive)
GI50 (UACC-257): 18.9 µM (inactive)
GI50 (DU-145): 20.2 µM (inactive)
GI50 (A498): 17.9 µM (inactive)
GI50 (SNB-19): 20.1 µM (inactive)
GI50 (A549): 14.2 µM (inactive)
GI50 (ACHN): 15.1 µM (inactive)
GI50 (OVCAR-3): 16.1 µM (inactive)
GI50 (NCI-H460): 14 µM (inactive)
GI50 (SN12C): 18.3 µM (inactive)
GI50 (HOP-92): 10.3 µM (inactive)
GI50 (LOX IMVI): 12.8 µM (inactive)
GI50 (HL-60): 18.9 µM (inactive)
GI50 (CAKI-1): 16.6 µM (inactive)
GI50 (Hs-578T): 23.3 µM (inactive)
GI50 (OVCAR-8): 21.3 µM (inactive)
GI50 (UO-31): 15 µM (inactive)
GI50 (OVCAR-4): 16.3 µM (inactive)
GI50 (TK-10): 21.2 µM (inactive)
GI50 (SR): 14.2 µM (inactive)
GI50 (MDA-MB-231): 16.8 µM (inactive)
GI50 (T47D): 17.6 µM (inactive)
GI50 (NCI/ADR-RES): 15.8 µM (inactive)
GI50 (MDA-MB-435): 11.1 µM (inactive)
GI50 (HT-29): 15 µM (inactive)
GI50 (SK-MEL-28): 17.7 µM (inactive)
GI50 (SK-OV-3): 15.9 µM (inactive)
GI50 (NCI-H226): 21.2 µM (inactive)
GI50 (MOLT-4): 12.8 µM (inactive)
GI50 (SF-295): 16.4 µM (inactive)
GI50 (HCT-15): 16.6 µM
GI50 (K562): 25.3 µM (inactive)
GI50 (NCI-H23): 18.2 µM (inactive)
GI50 (RPMI-8226): 15.7 µM (inactive)
GI50 (HCC 2998): 21.1 µM (inactive)
GI50 (SK-MEL-2): 15.9 µM (inactive)
GI50 (PC-3): 6.44 µM (inactive)
GI50 (NCI-H522): 17 µM (inactive)
GI50 (COLO 205): 17.3 µM (inactive)

CCOP(=O)(OCC)/C(C#N)=C/c1ccccn1
GI50 (OVCAR-5): > 100 µM (inactive)
GI50 (SK-MEL-5): > 100 µM (inactive)
GI50 (U-251): > 100 µM (inactive)
GI50 (SNB-75): > 100 µM (inactive)
GI50 (HCT-116): > 100 µM (inactive)
GI50 (MCF7): > 100 µM (inactive)
GI50 (IGROV-1): > 100 µM (inactive)
GI50 (M14): > 100 µM (inactive)
GI50 (HOP-62): > 100 µM (inactive)
GI50 (786-0): > 100 µM (inactive)
GI50 (SW-620): > 100 µM (inactive)
GI50 (RXF 393): > 100 µM (inactive)
GI50 (MDA-N): > 100 µM (inactive)
GI50 (UACC-257): > 100 µM (inactive)
GI50 (DU-145): > 100 µM (inactive)
GI50 (A498): > 100 µM (inactive)
GI50 (SF-539): > 100 µM (inactive)
GI50 (SNB-19): > 100 µM (inactive)
GI50 (A549): > 100 µM (inactive)
GI50 (ACHN): > 100 µM (inactive)
GI50 (OVCAR-3): > 100 µM (inactive)
GI50 (NCI-H460): > 100 µM (inactive)
GI50 (KM12): > 100 µM (inactive)
GI50 (SN12C): > 100 µM (inactive)
GI50 (UACC-62): > 100 µM (inactive)
GI50 (HOP-92): > 100 µM (inactive)
GI50 (LOX IMVI): > 100 µM (inactive)
GI50 (HL-60): > 100 µM (inactive)
GI50 (CAKI-1): > 100 µM (inactive)
GI50 (Hs-578T): > 100 µM (inactive)
GI50 (OVCAR-8): > 100 µM (inactive)
GI50 (OVCAR-4): > 100 µM (inactive)
GI50 (TK-10): > 100 µM (inactive)
GI50 (SR): > 100 µM (inactive)
GI50 (MDA-MB-231): > 100 µM (inactive)
GI50 (T47D): > 100 µM (inactive)
GI50 (NCI/ADR-RES): > 100 µM (inactive)
GI50 (EKVX): > 100 µM (inactive)
GI50 (MDA-MB-435): > 100 µM (inactive)
GI50 (HT-29): > 100 µM (inactive)
GI50 (SK-MEL-28): > 100 µM (inactive)
GI50 (SK-OV-3): > 100 µM (inactive)
GI50 (NCI-H226): > 100 µM (inactive)
GI50 (MOLT-4): > 100 µM (inactive)
GI50 (SF-295): > 100 µM (inactive)
GI50 (HCT-15): > 100 µM
GI50 (Malme-3M): > 100 µM (inactive)
GI50 (K562): > 100 µM (inactive)
GI50 (NCI-H23): > 100 µM (inactive)
GI50 (RPMI-8226): > 100 µM (inactive)
GI50 (HCC 2998): > 100 µM (inactive)
GI50 (CCRF-CEM): > 100 µM (inactive)
GI50 (NCI-H522): > 100 µM (inactive)
GI50 (SF-268): > 100 µM (inactive)
GI50 (COLO 205): > 100 µM (inactive)

O=[N+]([O-])C(/C=C(\Cl)[N+](=O)[O-])=C(N1CCOCC1)N1CCOCC1
GI50 (OVCAR-5): 21.2 µM (inactive)
GI50 (SK-MEL-5): > 100 µM (inactive)
GI50 (U-251): 24.6 µM (inactive)
GI50 (SNB-75): 50.5 µM (inactive)
GI50 (HCT-116): 25.3 µM (inactive)
GI50 (MCF7): 17.6 µM (inactive)
GI50 (IGROV-1): > 100 µM (inactive)
GI50 (M14): > 100 µM (inactive)
GI50 (HOP-62): 20.9 µM (inactive)
GI50 (786-0): 16.7 µM (inactive)
GI50 (RXF 393): 31.5 µM (inactive)
GI50 (MDA-N): > 100 µM (inactive)
GI50 (UACC-257): > 100 µM (inactive)
GI50 (DU-145): > 100 µM (inactive)
GI50 (A498): 27 µM (inactive)
GI50 (SF-539): 22.3 µM (inactive)
GI50 (SNB-19): > 100 µM (inactive)
GI50 (A549): 19.4 µM (inactive)
GI50 (ACHN): 41.7 µM (inactive)
GI50 (OVCAR-3): 19.7 µM (inactive)
GI50 (NCI-H460): > 100 µM (inactive)
GI50 (KM12): > 100 µM (inactive)
GI50 (SN12C): > 100 µM (inactive)
GI50 (UACC-62): 85.7 µM (inactive)
GI50 (HOP-92): 25.4 µM (inactive)
GI50 (LOX IMVI): 85.9 µM (inactive)
GI50 (HL-60): 18.4 µM (inactive)
GI50 (CAKI-1): 27.4 µM (inactive)
GI50 (Hs-578T): 0.232 µM (active)
GI50 (OVCAR-8): > 100 µM (inactive)
GI50 (UO-31): 36.6 µM (inactive)
GI50 (OVCAR-4): 25.9 µM (inactive)
GI50 (TK-10): 47 µM (inactive)
GI50 (SR): 39.6 µM (inactive)
GI50 (MDA-MB-231): 23.3 µM (inactive)
GI50 (T47D): 24.5 µM (inactive)
GI50 (NCI/ADR-RES): > 100 µM (inactive)
GI50 (EKVX): > 100 µM (inactive)
GI50 (MDA-MB-435): > 100 µM (inactive)
GI50 (HT-29): 33.4 µM (inactive)
GI50 (SK-MEL-28): > 100 µM (inactive)
GI50 (SK-OV-3): > 100 µM (inactive)
GI50 (NCI-H226): > 100 µM (inactive)
GI50 (MOLT-4): 50.2 µM (inactive)
GI50 (SF-295): > 100 µM (inactive)
GI50 (HCT-15): > 100 µM
GI50 (Malme-3M): 27.2 µM (inactive)
GI50 (K562): 18.3 µM (inactive)
GI50 (NCI-H23): > 100 µM (inactive)
GI50 (RPMI-8226): 26.5 µM (inactive)
GI50 (HCC 2998): 24 µM (inactive)
GI50 (SK-MEL-2): > 100 µM (inactive)
GI50 (CCRF-CEM): 56.9 µM (inactive)
GI50 (PC-3): > 100 µM (inactive)
GI50 (NCI-H522): 41.8 µM (inactive)
GI50 (SF-268): 35.5 µM (inactive)
GI50 (COLO 205): 19.8 µM (inactive)

COc1cc2c[n+](C)c3c4cc(OC)c(OC)cc4ccc3c2cc1OC
GI50 (HCT-116): > 100 µM (inactive)
GI50 (BT-549): 32.1 µM (inactive)
GI50 (M14): > 100 µM (inactive)
GI50 (786-0): > 100 µM (inactive)
GI50 (SW-620): 91.2 µM (inactive)
GI50 (UACC-257): > 100 µM (inactive)
GI50 (DU-145): 25.4 µM (inactive)
GI50 (A549): > 100 µM (inactive)
GI50 (ACHN): > 100 µM (inactive)
GI50 (OVCAR-3): 29.1 µM (inactive)
GI50 (UACC-62): > 100 µM (inactive)
GI50 (CAKI-1): > 100 µM (inactive)
GI50 (UO-31): > 100 µM (inactive)
GI50 (OVCAR-4): 55.3 µM (inactive)
GI50 (EKVX): > 100 µM (inactive)
GI50 (MDA-MB-435): > 100 µM (inactive)
GI50 (SK-MEL-28): > 100 µM (inactive)
GI50 (SK-OV-3): > 100 µM (inactive)
GI50 (SF-295): > 100 µM (inactive)
GI50 (HCT-15): > 100 µM
GI50 (K562): 26.1 µM (inactive)
GI50 (RPMI-8226): 48 µM (inactive)
GI50 (HCC 2998): > 100 µM (inactive)
GI50 (SK-MEL-2): > 100 µM (inactive)
GI50 (CCRF-CEM): 35.3 µM (inactive)
GI50 (PC-3): 72.9 µM (inactive)
GI50 (COLO 205): 15.8 µM (inactive)
